Reference: US6358885B1, “Substituted phenylheterocyclic herbicides” (Mississippi State University, priority 1992, dated 2002)

Key:
morningglory [1] = assay: Test B preemergence/postemergence greenhouse plant response rating 0 to 10; type: in vivo, Ipomoea hederacea; conditions: 0 to 10 scale
How it was run: (§1)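 Test chemicals were sprayed onto freshly planted seed and, concurrently, onto young plants between the one and four leaf stage. After a twelve- to sixteen-day greenhouse period, each species was visually compared with untreated controls.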

bedstraw = assay: Test C preemergence/postemergence greenhouse plant response rating 0 to 100; type: in vivo, Galium aparine; conditions: POSTEMERGENCE; for Plant response rating, Bedstraw: 0 to 100 scale
How it was run: (§2)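 Compounds in non-phytotoxic solvent applied preemergence to sandy loam one day after planting, postemergence at the 1–4 leaf stage, or to ~2.5 cm floodwater over silt loam.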

chickweed [2] = assay: Test B preemergence/postemergence greenhouse plant response rating 0 to 10; type: in vivo, Stellaria media; conditions: 0 to 10 scale
How it was run: as §1

barley = assay: Test C preemergence/postemergence greenhouse plant response rating 0 to 100; type: in vivo, Hordeum vulgare; conditions: POSTEMERGENCE; for Plant response rating Barley Igri: 0 to 100 scale
How it was run: as §2

soybean [3] = assay: Test B preemergence/postemergence greenhouse plant response rating 0 to 10; type: in vivo, Glycine max; conditions: 0 to 10 scale
How it was run: as §1

chickweed [4] = assay: Test C preemergence/postemergence greenhouse plant response rating 0 to 100; type: in vivo, Stellaria media; conditions: POSTEMERGENCE; for Plant response rating, Chickweed: 0 to 100 scale
How it was run: as §2

morningglory [5] = assay: as above; type: in vivo, Ipomoea hederacea; conditions: POSTEMERGENCE; for Plant response rating, Morningglory: 0 to 100 scale
How it was run: as §2

crabgrass = assay: Test B preemergence/postemergence greenhouse plant response rating 0 to 10; type: in vivo, Digitaria spp.; conditions: 0 to 10 scale
How it was run: as §1

downy brome = assay: Test C preemergence/postemergence greenhouse plant response rating 0 to 100; type: in vivo, Bromus tectorum; conditions: POSTEMERGENCE; for Plant response rating Downy Brome: 0 to 100 scale
How it was run: as §2

wild oat = assay: Test B preemergence/postemergence greenhouse plant response rating 0 to 10; type: in vivo, Avena fatua; conditions: 0 to 10 scale
How it was run: as §1

purple nutsedge = assay: as above; type: in vivo, Cyperus rotundus; conditions: 0 to 10 scale
How it was run: as §1

umbrella sedge = assay: Test C flood test plant response rating 0 to 100; type: in vivo, Cyperus difformis; conditions: for Plant response rating Umbrella sedge: flood test species listed under POSTEMERGENCE, 0 to 100 scale
How it was run: as §2

rape = assay: Test B preemergence/postemergence greenhouse plant response rating 0 to 10; type: in vivo, Brassica napus; conditions: 0 to 10 scale
How it was run: as §1

wheat = assay: as above; type: in vivo, Triticum aestivum; conditions: 0 to 10 scale
How it was run: as §1

wild buckwheat = assay: Test C preemergence/postemergence greenhouse plant response rating 0 to 100; type: in vivo, Polygonum convolvulus; conditions: POSTEMERGENCE; for Plant response rating, Wild buckwheat: 0 to 100 scale
How it was run: as §2

corn = assay: Test B preemergence/postemergence greenhouse plant response rating 0 to 10; type: in vivo, Zea mays; conditions: 0 to 10 scale
How it was run: as §1

sorghum = assay: as above; type: in vivo, Sorghum bicolor; conditions: 0 to 10 scale
How it was run: as §1

soybean [6] = assay: Test C preemergence/postemergence greenhouse plant response rating 0 to 100; type: in vivo, Glycine max; conditions: POSTEMERGENCE; for Plant response rating, Soybean: 0 to 100 scale
How it was run: as §2

## CC(C)OC(=O)c1cc(-c2nn3c(c2Cl)CCCC3)c(F)cc1Cl [Compound 44]
Morningglory [1]; POSTEMERGENCE, Rate 50 g/ha
  Plant response rating, Morningglory: 9
Morningglory [1]; PREEMERGENCE, Rate 50 g/ha
  Plant response rating, Morningglory: 7
Morningglory [1]; Rate 200 g/ha, POSTEMERGENCE
  Plant response rating, Morningglory: 10
Morningglory [1]; Rate 200 g/ha, PREEMERGENCE
  Plant response rating, Morningglory: 10
bedstraw; 62 g/ha
  Plant response rating, Bedstraw: 80
bedstraw; 250 g/ha
  Plant response rating, Bedstraw: 100
bedstraw; Rate 4 g/ha
  Plant response rating (0 to 100), Bedstraw: 60
bedstraw; Rate 16 g/ha
  Plant response rating (0 to 100), Bedstraw: 80
Chickweed [2]; POSTEMERGENCE, Rate 200 g/ha
  Plant response rating, Chickweed: 10
Chickweed [2]; PREEMERGENCE, Rate 50 g/ha
  Plant response rating, Chickweed: 9
Chickweed [2]; Rate 200 g/ha, PREEMERGENCE
  Plant response rating, Chickweed: 9
barley; 62 g/ha
  Plant response rating Barley Igri: 40
barley; 250 g/ha
  Plant response rating Barley Igri: 60
barley; Rate 4 g/ha
  Plant response rating (0 to 100), Barley Igri: 10
barley; Rate 16 g/ha
  Plant response rating (0 to 100), Barley Igri: 30
Soybean [3]; POSTEMERGENCE, Rate 50 g/ha
  Plant response rating, Soybean: 8
Soybean [3]; PREEMERGENCE, Rate 50 g/ha
  Plant response rating, Soybean: 0
Soybean [3]; Rate 200 g/ha, POSTEMERGENCE
  Plant response rating, Soybean: 8
Soybean [3]; Rate 200 g/ha, PREEMERGENCE
  Plant response rating, Soybean: 3
Chickweed [4]; 62 g/ha
  Plant response rating, Chickweed: 95
Chickweed [4]; 250 g/ha
  Plant response rating, Chickweed: 100
Chickweed [4]; Rate 4 g/ha
  Plant response rating (0 to 100), Chickweed: 30
Chickweed [4]; Rate 16 g/ha
  Plant response rating (0 to 100), Chickweed: 80
Morningglory [5]; 62 g/ha
  Plant response rating, Morningglory: 95
Morningglory [5]; 250 g/ha
  Plant response rating, Morningglory: 100
Morningglory [5]; Rate 4 g/ha
  Plant response rating (0 to 100), Morningglory: 50
Morningglory [5]; Rate 16 g/ha
  Plant response rating (0 to 100), Morningglory: 70
crabgrass; POSTEMERGENCE, Rate 200 g/ha
  Plant response rating, Crabgrass: 10
crabgrass; PREEMERGENCE, Rate 50 g/ha
  Plant response rating, Crabgrass: 3
crabgrass; Rate 200 g/ha, PREEMERGENCE
  Plant response rating, Crabgrass: 9
Downy brome; 62 g/ha
  Plant response rating Downy Brome: 50
Downy brome; 250 g/ha
  Plant response rating Downy Brome: 90
Downy brome; Rate 4 g/ha
  Plant response rating (0 to 100), Downy Brome: 20
Downy brome; Rate 16 g/ha
  Plant response rating (0 to 100), Downy Brome: 40
Wild oat; POSTEMERGENCE, Rate 50 g/ha
  Plant response rating, Wild oat: 5
Wild oat; PREEMERGENCE, Rate 50 g/ha
  Plant response rating, Wild oat: 4
Wild oat; Rate 200 g/ha, POSTEMERGENCE
  Plant response rating, Wild oat: 8
Purple nutsedge; POSTEMERGENCE, Rate 50 g/ha
  Plant response rating, Nutsedge: 4
Purple nutsedge; PREEMERGENCE, Rate 50 g/ha
  Plant response rating, Nutsedge: 0
Purple nutsedge; Rate 200 g/ha, POSTEMERGENCE
  Plant response rating, Nutsedge: 8
Purple nutsedge; Rate 200 g/ha, PREEMERGENCE
  Plant response rating, Nutsedge: 3
Umbrella sedge; POSTEMERGENCE section, flood test, Rate 4 g/ha
  Plant response rating (0 to 100), Umbrella sedge: 30
Umbrella sedge; Rate 16 g/ha, under POSTEMERGENCE head (flood test species)
  Plant response rating (0 to 100), Umbrella sedge: 60
Umbrella sedge; 62 g/ha
  Plant response rating Umbrella sedge: 80
Umbrella sedge; 250 g/ha
  Plant response rating Umbrella sedge: 100
rape; POSTEMERGENCE, Rate 50 g/ha
  Plant response rating, Rape: 9
rape; PREEMERGENCE, Rate 50 g/ha
  Plant response rating, Rape: 2
rape; Rate 200 g/ha, POSTEMERGENCE
  Plant response rating, Rape: 10
rape; Rate 200 g/ha, PREEMERGENCE
  Plant response rating, Rape: 8
wheat; POSTEMERGENCE, Rate 50 g/ha
  Plant response rating, Wheat: 6
wheat; PREEMERGENCE, Rate 50 g/ha
  Plant response rating, Wheat: 3
wheat; Rate 200 g/ha, POSTEMERGENCE
  Plant response rating, Wheat: 6
wheat; Rate 200 g/ha, PREEMERGENCE
  Plant response rating, Wheat: 3
Wild buckwheat; 62 g/ha
  Plant response rating, Wild buckwheat: 100
Wild buckwheat; 250 g/ha
  Plant response rating, Wild buckwheat: 100
Wild buckwheat; Rate 4 g/ha
  Plant response rating (0 to 100), Wild buckwheat: 70
Wild buckwheat; Rate 16 g/ha
  Plant response rating (0 to 100), Wild buckwheat: 90
corn; POSTEMERGENCE, Rate 50 g/ha
  Plant response rating, Corn: 4
corn; POSTEMERGENCE, Rate 200 g/ha
  Plant response rating, Corn: 6
corn; PREEMERGENCE, Rate 50 g/ha
  Plant response rating, Corn: 2
corn; Rate 200 g/ha, PREEMERGENCE
  Plant response rating, Corn: 3
sorghum; POSTEMERGENCE, Rate 50 g/ha
  Plant response rating, Sorghum: 4
sorghum; PREEMERGENCE, Rate 50 g/ha
  Plant response rating, Sorghum: 1
sorghum; Rate 200 g/ha, POSTEMERGENCE
  Plant response rating, Sorghum: 5
sorghum; Rate 200 g/ha, PREEMERGENCE
  Plant response rating, Sorghum: 2
Soybean [6]; 62 g/ha
  Plant response rating, Soybean: 50
Soybean [6]; 250 g/ha
  Plant response rating, Soybean: 70
Soybean [6]; Rate 4 g/ha
  Plant response rating (0 to 100), Soybean: 10
Soybean [6]; Rate 16 g/ha
  Plant response rating (0 to 100), Soybean: 30
